Converted amounts (≈) assume the structure as drawn.
Columns and labels:
[1] = test system: Streptococcus sp. 'group B'; assay: Antimicrobial activity against group B Streptococcus sp. 'group B' serotype IA isolate 3047-05 by broth dilution method; format: functional
[2] = test system: Streptococcus sp. 'group B'; assay: Antimicrobial activity against group B Streptococcus sp. 'group B' serotype IA isolate 5662-05 by broth dilution method; format: functional
[3] = test system: Streptococcus sp. 'group B'; assay: Antimicrobial activity against group B Streptococcus sp. 'group B' serotype IA isolate 6649-05 by broth dilution method; format: functional
[4] = test system: Streptococcus sp. 'group B'; assay: Antimicrobial activity against group B Streptococcus sp. 'group B' serotype IA isolate 7490-03 by broth dilution method; format: functional
[5] = test system: Streptococcus sp. 'group B'; assay: Antimicrobial activity against group B Streptococcus sp. 'group B' serotype IA isolate 9012-04 by broth dilution method; format: functional
[6] = test system: Streptococcus sp. 'group B'; assay: Antimicrobial activity against group B Streptococcus sp. 'group B' serotype IB isolate 5436-03 by broth dilution method; format: functional
[7] = test system: Streptococcus sp. 'group B'; assay: Antimicrobial activity against group B Streptococcus sp. 'group B' serotype II isolate 3776-04 by broth dilution method; format: functional
[8] = test system: Streptococcus sp. 'group B'; assay: Antimicrobial activity against group B Streptococcus sp. 'group B' serotype II isolate 9051-04 by broth dilution method; format: functional
[9] = test system: Streptococcus sp. 'group B'; assay: Antimicrobial activity against group B Streptococcus sp. 'group B' serotype III isolate 3444-99 by broth dilution method; format: functional
[10] = test system: Streptococcus sp. 'group B'; assay: Antimicrobial activity against group B Streptococcus sp. 'group B' serotype III isolate 7037-99 by broth dilution method; format: functional
[11] = test system: Streptococcus sp. 'group B'; assay: Antimicrobial activity against group B Streptococcus sp. 'group B' serotype III isolate 3789-04 expressing pbp2x Q557E mutant and multilocus sequence type ST19 by broth dilution method; format: functional
[12] = test system: Streptococcus sp. 'group B'; assay: Antimicrobial activity against group B Streptococcus sp. 'group B' serotype III isolate 6138-03 expressing pbp2x Q557E mutant and multilocus sequence type ST19 by broth dilution method; format: functional
[13] = test system: Streptococcus sp. 'group B'; assay: Antimicrobial activity against group B Streptococcus sp. 'group B' serotype III isolate 7507-03 expressing pbp2x Q557E mutant and multilocus sequence type ST19 by broth dilution method; format: functional
[14] = test system: Streptococcus sp. 'group B'; assay: Antimicrobial activity against group B Streptococcus sp. 'group B' serotype III isolate 8607-03 expressing pbp2x Q557E mutant and multilocus sequence type ST19 by broth dilution method; format: functional
[15] = test system: Streptococcus sp. 'group B'; assay: Antimicrobial activity against group B Streptococcus sp. 'group B' serotype IV isolate 3454-03 by broth dilution method; format: functional
[16] = test system: Streptococcus sp. 'group B'; assay: Antimicrobial activity against group B Streptococcus sp. 'group B' isolate 4214-03 by broth dilution method; format: functional
[17] = test system: Streptococcus sp. 'group B'; assay: Antimicrobial activity against group B Streptococcus sp. 'group B' isolate 6149-03 by broth dilution method; format: functional
[18] = test system: Streptococcus sp. 'group B'; assay: Antimicrobial activity against group B Streptococcus sp. 'group B' isolate 7368-04 by broth dilution method; format: functional
[19] = test system: Streptococcus sp. 'group B'; assay: Antimicrobial activity against group B Streptococcus sp. 'group B' serotype V isolate 3386-05 by broth dilution method; format: functional
[20] = test system: Streptococcus sp. 'group B'; assay: Antimicrobial activity against group B Streptococcus sp. 'group B' serotype V isolate 4857-03 by broth dilution method; format: functional
[21] = test system: Streptococcus sp. 'group B'; assay: Antimicrobial activity against group B Streptococcus sp. 'group B' serotype V isolate 5677-04 by broth dilution method; format: functional
[22] = test system: Streptococcus sp. 'group B'; assay: Antimicrobial activity against group B Streptococcus sp. 'group B' serotype V isolate 9171-03 by broth dilution method; format: functional
[23] = test system: Streptococcus sp. 'group B'; assay: Antimicrobial activity against group B Streptococcus sp. 'group B' serotype III isolate 8607-03 expressing pbp2x Q557E mutant and harboring empty vector by broth dilution method; format: functional
[24] = test system: Streptococcus sp. 'group B'; assay: Antimicrobial activity against group B Streptococcus sp. 'group B' serotype III isolate 8607-03 expressing pbp2x Q557E mutant and harboring plasmid expressing wild-type pbp2x by broth dilution method; format: functional
[25] = test system: Streptococcus sp. 'group B'; assay: Antimicrobial activity against group B Streptococcus sp. 'group B' serotype III isolate 8607 with chromosomal pbp2x(Q557E) replaced by wild-type pbp2x through allelic exchange by broth dilution method

SMILES: CO[C@@]1(NC(=O)Cc2cccs2)C(=O)N2C(C(=O)O)=C(COC(N)=O)CS[C@@H]21 [CEFOXITIN]
- MIC [1]: 8 µg/mL (≈ 18.7 µM)
- MIC [2]: 8 µg/mL (≈ 18.7 µM)
- MIC [3]: 4 µg/mL (≈ 9.36 µM)
- MIC [4]: 2 µg/mL (≈ 4.68 µM)
- MIC [5]: 16 µg/mL (≈ 37.4 µM)
- MIC [6]: 16 µg/mL (≈ 37.4 µM)
- MIC [7]: 8 µg/mL (≈ 18.7 µM)
- MIC [8]: 8 µg/mL (≈ 18.7 µM)
- MIC [9]: 8 µg/mL (≈ 18.7 µM)
- MIC [10]: 8 µg/mL (≈ 18.7 µM)
- MIC [11]: 16 µg/mL (≈ 37.4 µM)
- MIC [12]: 16 µg/mL (≈ 37.4 µM)
- MIC [13]: 16 µg/mL (≈ 37.4 µM)
- MIC [14]: 16 µg/mL (≈ 37.4 µM)
- MIC [15]: 8 µg/mL (≈ 18.7 µM)
- MIC [16]: 4 µg/mL (≈ 9.36 µM)
- MIC [17]: 8 µg/mL (≈ 18.7 µM)
- MIC [18]: 4 µg/mL (≈ 9.36 µM)
- MIC [19]: 16 µg/mL (≈ 37.4 µM)
- MIC [20]: 4 µg/mL (≈ 9.36 µM)
- MIC [21]: 16 µg/mL (≈ 37.4 µM)
- MIC [22]: 4 µg/mL (≈ 9.36 µM)
- MIC [23]: 16 µg/mL (≈ 37.4 µM)
- MIC [24]: 2 µg/mL (≈ 4.68 µM)
- MIC [25]: 2 µg/mL (≈ 4.68 µM)

SMILES: CO/N=C(\C(=O)N[C@@H]1C(=O)N2C(C(=O)O)=C(COC(N)=O)CS[C@H]12)c1ccco1 [CEFUROXIME]
- MIC [1]: 0.06 µg/mL (≈ 0.141 µM)
- MIC [2]: 0.03 µg/mL (≈ 0.0707 µM)
- MIC [4]: 0.06 µg/mL (≈ 0.141 µM)
- MIC [5]: 0.06 µg/mL (≈ 0.141 µM)
- MIC [6]: 0.25 µg/mL (≈ 0.589 µM)
- MIC [7]: 0.12 µg/mL (≈ 0.283 µM)
- MIC [8]: 0.06 µg/mL (≈ 0.141 µM)
- MIC [9]: 0.06 µg/mL (≈ 0.141 µM)
- MIC [10]: 0.06 µg/mL (≈ 0.141 µM)
- MIC [11]: 0.12 µg/mL (≈ 0.283 µM)
- MIC [12]: 0.25 µg/mL (≈ 0.589 µM)
- MIC [13]: 0.12 µg/mL (≈ 0.283 µM)
- MIC [14]: 0.12 µg/mL (≈ 0.283 µM)
- MIC [15]: 0.06 µg/mL (≈ 0.141 µM)
- MIC [16]: 0.12 µg/mL (≈ 0.283 µM)
- MIC [17]: 0.06 µg/mL (≈ 0.141 µM)
- MIC [18]: 0.06 µg/mL (≈ 0.141 µM)
- MIC [20]: 0.06 µg/mL (≈ 0.141 µM)
- MIC [21]: 0.12 µg/mL (≈ 0.283 µM)
- MIC [22]: 0.06 µg/mL (≈ 0.141 µM)
- MIC [23]: 0.5 µg/mL (≈ 1.18 µM)
- MIC [24]: 0.06 µg/mL (≈ 0.141 µM)
- MIC [25]: 0.06 µg/mL (≈ 0.141 µM)

SMILES: CC1(C)S[C@@H]2[C@H](NC(=O)Cc3ccccc3)C(=O)N2[C@H]1C(=O)O [PENICILLIN G]
- MIC [1]: 0.06 µg/mL (≈ 0.179 µM)
- MIC [2]: 0.06 µg/mL (≈ 0.179 µM)
- MIC [3]: 0.12 µg/mL (≈ 0.359 µM)
- MIC [4]: 0.06 µg/mL (≈ 0.179 µM)
- MIC [5]: 0.06 µg/mL (≈ 0.179 µM)
- MIC [6]: 0.03 µg/mL (≈ 0.0897 µM)
- MIC [7]: 0.12 µg/mL (≈ 0.359 µM)
- MIC [8]: 0.06 µg/mL (≈ 0.179 µM)
- MIC [9]: 0.06 µg/mL (≈ 0.179 µM)
- MIC [10]: 0.06 µg/mL (≈ 0.179 µM)
- MIC [11]: 0.12 µg/mL (≈ 0.359 µM)
- MIC [12]: 0.12 µg/mL (≈ 0.359 µM)
- MIC [13]: 0.12 µg/mL (≈ 0.359 µM)
- MIC [14]: 0.12 µg/mL (≈ 0.359 µM)
- MIC [15]: 0.12 µg/mL (≈ 0.359 µM)
- MIC [16]: 0.12 µg/mL (≈ 0.359 µM)
- MIC [17]: 0.06 µg/mL (≈ 0.179 µM)
- MIC [18]: 0.12 µg/mL (≈ 0.359 µM)
- MIC [19]: 0.03 µg/mL (≈ 0.0897 µM)
- MIC [20]: 0.12 µg/mL (≈ 0.359 µM)
- MIC [21]: 0.12 µg/mL (≈ 0.359 µM)
- MIC [22]: 0.06 µg/mL (≈ 0.179 µM)
- MIC [23]: 0.12 µg/mL (≈ 0.359 µM)
- MIC [24]: 0.015 µg/mL (≈ 0.0449 µM)
- MIC [25]: 0.015 µg/mL (≈ 0.0449 µM)

Reference: ChEMBL document CHEMBL1275482, “Point mutation in the group B streptococcal pbp2x gene conferring decreased susceptibility to beta-lactam antibiotics” (2008)
